Data from US20180296530A1, “METHOD FOR TREATING ATOPIC DERMATITIS” (priority 2015, published 2018).

Experiments:
[1] = system: Patients aged 1 to 18 years with physician-diagnosed AD and sleep problems; assay: Clinical trial: sleep evaluated by actigraphy; format: in vivo, human
Method: Patients aged 1 to 18 years with physician-diagnosed AD involving at least 5% of the total body surface area were recruited from the pediatric and dermatology outpatient departments of the National Taiwan University Hospital from Aug. 1, 2012, through Jan. 31, 2013. Follow-up was completed on Apr. 13, 2013. Those patients with sleep problems occurring more than 3 days per week during the previous 3 months were eligible. […] They were then randomized to receive oral melatonin, 3 mg/d (General Nutrition Corporation), or placebo (Standard Chem & Pharm Co, Ltd) at bedtime for 4 weeks. After a 2-week washout period, participants crossed to the alternate treatment. Sleep was evaluated by actigraphy (Mini-Mitter Actiwatch; Philips-Respironics). Each participant wore the actigraphic device on the nondominant wrist for 3 consecutive nights starting 3 nights before each treatment period and for the last 3 nights of each treatment period. In a subgroup of patients who offered consent, polysomnography was performed on the night before the first day and on the last night of each treatment period.

[2] = system: DNCB-induced AD mouse model; assay: Example 6: dermatitis severity, topical melatonin cream in DNCB-induced AD mouse model; format: in vivo, Balb/c mice; conditions: for clinical score (dermatitis): day 1 to day 14, Day 15, DNCB group 10, Control 0
Method: Macroscopic assessment of the severity of dermatitis was determined by a scoring method as described previously. Briefly, the degree of each sign were scored as 0 (none), 1 (mild), 2 (moderate), and 3 (severe). This scoring was based on the severity of erythema (hemorrhage), edema, excoriation (erosion), and dryness (scaling). The total score (minimum 0 and maximum 12) from the four symptoms of each mouse were taken as the score for that mouse. Ear thickness was measured with a thickness gauge (Digimatic Indicator, Mitsutoyo, Tokyo). This assessment was performed on the last day of the experiment (Day 20) by an investigator who was blind to the grouping of the animals.
Four- to six-week-old Balb/c mice were maintained under specific pathogen-free conditions. Animals were housed in an air-conditioned animal room (25±1° C.; relative humidity 40±5%) and were fed a laboratory diet and distilled water. Animal care and handling protocols were approved by the Animal Committee of the College of Medicine, Taiwan University, and all procedures were conducted in accordance with the U.S. National Institute of Health guidelines.
The protocol for establishing an AD mouse model in this Example was modified from those described previously. Briefly, referring to FIG. 12, DNCB-induced AD mouse model was prepared by the repeated applications of 20 μL of 1% DNCB in acetone/olive oil (4:1) to the outer and inner surfaces of mouse ears and 100 μL of the same solution to the shaved back skin once on days 1 and 4. Mice of Control group were treated with the identical volumes of vehicle.
The DNCB-sensitized mice were randomly assigned to one of four groups: DNCB, DNCB+0.1% topical melatonin, DNCB+1% topical melatonin, DNCB+8% topical melatonin. Each group (including Control group) consisted of 3 mice. On days 8 and 11, sensitized mice was challenged by applying 0.2% DNCB to the skin surfaces. For the three groups treated with topical melatonin groups, 0.1 mg of topical melatonin cream was given twice a day from day 1 to day 14. The cream base consisted of a mixture of tefose 63, octyldodecyl myristate, sorbic acid, methyl paraben sodium, ddH2O, and apricot kernel oil. For Control and DNCB groups, 0.1 mg of cream base was given twice a day from day 1 to day 14. This experiment was ended at Day 15.
The dermatitis severity of each mouse treated with or without melatonin was evaluated in the same manner as those described in Example 5. This evaluation was performed on the last day of the experiment (Day 15) by an investigator who was blind to the grouping of the animals.

serum total IgE = assay: Example 5: serum IgE in DNCB-induced AD mouse model; format: in vivo, Balb/c mice; conditions: 5% melatonin treatment compared with the DNCB-stimulated group, p=0.02, Day 20
Method: The protocol for establishing an AD mouse model in this Example was modified from those described previously. Briefly, referring to FIG. 4, DNCB-induced AD mouse model was prepared by the repeated applications of 20 μL of 1% DNCB in acetone/olive oil (4:1) to the outer and inner surfaces of mouse ears and 100 μL of the same solution to the shaved back skin once on days 1, 2, and 3. Mice of Control group were treated with the identical volumes of vehicle.
The DNCB-sensitized mice were randomly assigned to one of three groups: DNCB (Positive control), DNCB+3% topical melatonin (Treatment: low-dose), DNCB+5% topical melatonin (Treatment: high-dose). Each group (including Control group) consisted of 5 mice. From days 9 to 19, sensitized mice were challenged by applying 0.5% DNCB to the skin surfaces. For the two groups treated with topical melatonin groups, 0.3 mg of topical melatonin ointment (3% or 5% melatonin in Vaseline) was given together with DNCB during the challenge period. […]
Blood and dorsal skin of each mouse were collected on the last day of the experiment (Day 20) and stored at −80° C. until use. Serum IgE levels were measured using the ImmunoCAP fluorescence enzyme immunoassay (Phadia AB, Sweden) according to the manufacturer's instructions. The dorsal skin mRNA expression of the cytokines IL-4, IL-13, and IL-17 were measured by RT-PCR.

[3] = after oral melatonin 3 mg/d at bedtime for 4 weeks, mean, actigraphy
[4] = after vs before oral melatonin 3 mg/d, 4 weeks, mean
[5] = melatonin phase, before treatment, mean, actigraphy
[6] = melatonin vs placebo, adjusted for age and sex

Structure (SMILES): COc1ccc2[nH]cc(CCNC(C)=O)c2c1 [Melatonin, melatonin]
- sleep-onset latency, Wilcoxon signed rank test ([1]; FIG. 2D, almost unchanged in placebo treatment): decreased the sleep-onset latency significantly
- patients who believed that their sleep had improved ([1]; after melatonin treatment, 17 of 37 (placebo 13 of 38 [34%])): 46%
- Fragmentation index, After ([1]; after oral melatonin 3 mg/d at bedtime for 4 weeks, mean): 13.6
- Mobility in sleep, After [1, 3]: 9.7%
- Sleep efficiency, After [1, 3]: 76.7%
- Sleep-onset latency, After [1, 3]: 21.6 min
- Total sleep time, After [1, 3]: 390.1 min/night
- WASO (wake after sleep onset), After [1, 3]: 74.5 min
- Wake in sleep interval, After [1, 3]: 15.6%
- Fragmentation index, Difference [1, 4]: −2.4
- Mobility in sleep, Difference [1, 4]: −2.0%
- Sleep efficiency, Difference [1, 4]: 2.4%
- Sleep-onset latency, Difference [1, 4]: -23.4 min
- Total sleep time, Difference [1, 4]: 10.0 min/night
- WASO (wake after sleep onset), Difference [1, 4]: -9.0 min
- Wake in sleep interval, Difference [1, 4]: −2.1%
- effect on the other sleep variables measured by actigraphy ([1]; between the melatonin and placebo phases): did not differ significantly
- decrease of the sleep-onset latency more than placebo ([1]; linear mixed-effects model, adjusted for age and sex): 21.4 min
- sleep-onset latency, first treatment period, after ([1]; melatonin group, first treatment period, after oral 3 mg/d for 4 weeks, actigraphy): 24.4 min
- sleep-onset latency, first treatment period, before ([1]; melatonin group, first treatment period, before treatment, actigraphy): 42.8 min
- sleep-onset latency, second treatment period, after ([1]; melatonin group, second treatment period, after oral 3 mg/d for 4 weeks, actigraphy): 19.1 min
- sleep-onset latency, second treatment period, before ([1]; melatonin group, second treatment period, before treatment, actigraphy): 46.7 min
- Mobility in sleep, Before [1, 5]: 11.6%
- Sleep efficiency, Before [1, 5]: 74.4%
- Sleep-onset latency, Before [1, 5]: 44.9 min
- Total sleep time, Before [1, 5]: 380.1 min/night
- WASO (wake after sleep onset), Before [1, 5]: 83.6 min
- Wake in sleep interval, Before [1, 5]: 17.6%
- Fragmentation index, Before ([1]; melatonin phase, before treatment, mean, greater scores indicate more fragmented sleep): 16.0
- effect on sleep efficiency, wake time during sleep, or sleep fragmentation ([1]; melatonin treatment compared to placebo, FIG. 3): no significant effect
- Fragmentation index, Difference of Treatment Effect From the Linear Mixed-Effects Model, Mean [1, 6]: −3.2
- Mobility in sleep, Difference of Treatment Effect From the Linear Mixed-Effects Model, Mean [1, 6]: −2.9%
- Sleep efficiency, Difference of Treatment Effect From the Linear Mixed-Effects Model, Mean [1, 6]: 2.2%
- Sleep-onset latency, Difference of Treatment Effect From the Linear Mixed-Effects Model, Mean [1, 6]: -21.4 min
- Total sleep time, Difference of Treatment Effect From the Linear Mixed-Effects Model, Mean [1, 6]: 24.8 min/night
- WASO, Difference of Treatment Effect From the Linear Mixed-Effects Model, Mean [1, 6]: -8.2 min
- Wake in sleep interval, Difference of Treatment Effect From the Linear Mixed-Effects Model, Mean [1, 6]: −2.3%
- shortening of sleep-onset latency, mean ([1]; oral melatonin treatment): 23.4 min
- shortening of sleep-onset latency, mean percent ([1]; oral melatonin treatment): 52.1%
- clinical score (dermatitis) ([2]; 0.1% melatonin cream twice a day): 7
- gross skin findings ([2]; 0.1%, 1%, and 8% topical melatonin, 8% improved the skin severity most): improved the gross skin findings in a dose-dependent manner
- clinical score (dermatitis) ([2]; 8% melatonin cream twice a day): 2
- Ear thickness ([2]; after 8% melatonin treatment, FIG. 14): significantly improved
- serum total IgE level (serum total IgE): significantly reduced
